15 compounds from ChEMBL document CHEMBL4311935, “Synthesis and antitumor activity of fluorouracil - oleanolic acid/ursolic acid/glycyrrhetinic acid conjugates” (Medchemcomm, 2019) can be followed below.

One test concerns A549. In words: Cytotoxicity against human A549 cells assessed as cell growth inhibition after 48 hrs by MTT assay. The test is classed as functional, cell-based. Conditions: A549, 48 h. For orientation: Tetrazolium dyes change colour on reduction, which living cells bring about.
For the next test, the system named is MCF7. As to the kind of experiment: Cytotoxicity against human MCF7 cells assessed as cell growth inhibition after 48 hrs by MTT assay. The test is classed as functional, cell-based. Conditions: MCF7, 48 h.
In a further test the test system is Bel-7402. In words: Cytotoxicity against human Bel7402 cells assessed as cell growth inhibition after 48 hrs by MTT assay. Format: functional, cell-based. The conditions noted are these: Bel-7402, 48 h.
Another test relates to K562. As to the kind of experiment: Cytotoxicity against human K562 cells assessed as cell growth inhibition after 48 hrs by MTT assay. The test is classed as functional, cell-based. Conditions: K562, 48 h.
The next test relates to L02. As to the kind of experiment: Cytotoxicity against human LO2 cells assessed as cell growth inhibition after 48 hrs by MTT assay. The test is classed as cell-based. Conditions: L02, 48 h.
For the next test, the system named is A549/TR. In words: Cytotoxicity against human A549/T cells assessed as cell growth inhibition after 48 hrs by MTT assay. The test is classed as functional, cell-based.
The next test has as its system NCI/ADR-RES. In words: Cytotoxicity against human MCF7/ADR cells assessed as cell growth inhibition after 48 hrs by MTT assay. Format: functional, cell-based.
The next test concerns Bel7402/5-FU. In words: Cytotoxicity against human Bel7402/5-FU cells assessed as cell growth inhibition after 48 hrs by MTT assay. The test is classed as functional, cell-based.
The next test deals with K562/Adr. In words: Cytotoxicity against human K562/ADR cells assessed as cell growth inhibition after 48 hrs by MTT assay. Format: functional, cell-based.

Take `CC1(C)[C@@H](O)CC[C@]2(C)[C@H]3C(=O)C=C4[C@@H]5C[C@@](C)(C(=O)OCCCCCCn6cc(F)c(=O)[nH]c6=O)CC[C@]5(C)CC[C@@]4(C)[C@]3(C)CC[C@@H]12`: the IC50 in the test on A549 is 49.4 µM; with MCF7 it was 50.3 µM; in the test on Bel-7402, 40.9 µM; in the test on K562, 35.1 µM; in the test on L02, 73.2 µM.
For the compound `CC1(C)CC[C@]2(C(=O)OCCCCCCn3cc(F)c(=O)n(CCCCCCOC(=O)[C@]45CCC(C)(C)C[C@H]4C4=CC[C@@H]6[C@@]7(C)CC[C@H](O)C(C)(C)[C@@H]7CC[C@@]6(C)[C@]4(C)CC5)c3=O)CC[C@]3(C)C(=CC[C@@H]4[C@@]5(C)CC[C@H](O)C(C)(C)[C@@H]5CC[C@]43C)[C@@H]2C1`, the IC50 with A549, in the test with MCF7, with Bel-7402, in the test on K562 and with L02 was over 200 µM throughout.
`CC1(C)[C@@H](O)CC[C@]2(C)[C@H]3C(=O)C=C4[C@@H]5C[C@@](C)(C(=O)O)CC[C@]5(C)CC[C@@]4(C)[C@]3(C)CC[C@@H]12` [ENOXOLONE]: the IC50 was over 200 µM in the test on A549; over 200 µM in the test with MCF7; over 200 µM in the test on Bel-7402; over 200 µM in the test on K562; over 200 µM in the test with L02; 99.9 µM with A549/TR. Besides, the half-inhibitory concentration (IC50) in the test with NCI/ADR-RES worked out at 74.5 µM; in the test with Bel7402/5-FU, 69.8 µM; with K562/Adr, 86.5 µM.
Turning to `CC1(C)CC[C@]2(C(=O)OCCCCCCn3cc(F)c(=O)[nH]c3=O)CC[C@]3(C)C(=CC[C@@H]4[C@@]5(C)CC[C@H](O)C(C)(C)[C@@H]5CC[C@]43C)[C@@H]2C1`, the IC50 in the test on A549 worked out at 23.4 µM; in the test on MCF7, 24.3 µM; in the test with Bel-7402, 25.2 µM; in the test on K562 it was 14.9 µM; in the test on L02, 46.6 µM.
On the same counts, the results for `C[C@H]1[C@H](C)CC[C@]2(C(=O)OCCCCCCCCn3cc(F)c(=O)n(CCCCCCCCOC(=O)[C@@]45CC[C@]6(C)C(=CC[C@@H]7[C@@]8(C)CC[C@H](O)C(C)(C)[C@@H]8CC[C@]76C)[C@@H]4C[C@@H](C)[C@H](C)C5)c3=O)CC[C@]3(C)C(=CC[C@@H]4[C@@]5(C)CC[C@H](O)C(C)(C)[C@@H]5CC[C@]43C)[C@H]12` are over 200 µM, over 200 µM, over 200 µM, over 200 µM and over 200 µM.
As to `C[C@H]1[C@H](C)CC[C@]2(C(=O)O)CC[C@]3(C)C(=CC[C@@H]4[C@@]5(C)CC[C@H](O)C(C)(C)[C@@H]5CC[C@]43C)[C@H]12` [URSOLIC ACID], the IC50 in the test on A549 stood at 77.7 µM; with MCF7, 70.1 µM; with Bel-7402 it was 64.6 µM; with K562 it was 41 µM; in the test with L02, 58.4 µM; in the test with K562/Adr, 38.1 µM.
For the compound `CC1(C)CC[C@]2(C(=O)O)CC[C@]3(C)C(=CC[C@@H]4[C@@]5(C)CC[C@H](O)C(C)(C)[C@@H]5CC[C@]43C)[C@@H]2C1` [OLEANOLIC_ACID], the IC50 with A549 was 41.6 µM; in the test with MCF7, over 200 µM; in the test with Bel-7402, 59.9 µM; in the test with K562, over 200 µM; in the test on L02, over 200 µM; with A549/TR, over 200 µM. The IC50 with NCI/ADR-RES, in the test with Bel7402/5-FU and in the test with K562/Adr was over 200 µM each time.
Turning to `C[C@H]1[C@H](C)CC[C@]2(C(=O)OCCCCCCn3cc(F)c(=O)n(CCCCCCOC(=O)[C@@]45CC[C@]6(C)C(=CC[C@@H]7[C@@]8(C)CC[C@H](O)C(C)(C)[C@@H]8CC[C@]76C)[C@@H]4C[C@@H](C)[C@H](C)C5)c3=O)CC[C@]3(C)C(=CC[C@@H]4[C@@]5(C)CC[C@H](O)C(C)(C)[C@@H]5CC[C@]43C)[C@H]12`, the IC50 with A549, with MCF7, with Bel-7402, in the test with K562 and in the test with L02 was over 200 µM in each case.
As to `C[C@H]1[C@H](C)CC[C@]2(C(=O)OCCCCCCCCn3cc(F)c(=O)[nH]c3=O)CC[C@]3(C)C(=CC[C@@H]4[C@@]5(C)CC[C@H](O)C(C)(C)[C@@H]5CC[C@]43C)[C@H]12`, the IC50 in the test with A549, in the test on MCF7, in the test with Bel-7402, with K562 and in the test with L02 was over 200 µM in each case.
Take `O=c1[nH]cc(F)c(=O)[nH]1` [FLUOROURACIL]: the IC50 in the test with A549 was 50.4 µM; in the test on MCF7, 52.1 µM; in the test with Bel-7402, 53.3 µM; in the test on K562, 41.7 µM; with L02, over 200 µM; in the test with A549/TR it was 84.3 µM. For the same compound, the IC50 in the test on NCI/ADR-RES worked out at 54.7 µM; with Bel7402/5-FU, 38.2 µM; in the test with K562/Adr, 31.9 µM.
As for `CC1(C)CC[C@]2(C(=O)OCCCCCCCCn3cc(F)c(=O)n(CCCCCCCCOC(=O)[C@]45CCC(C)(C)C[C@H]4C4=CC[C@@H]6[C@@]7(C)CC[C@H](O)C(C)(C)[C@@H]7CC[C@@]6(C)[C@]4(C)CC5)c3=O)CC[C@]3(C)C(=CC[C@@H]4[C@@]5(C)CC[C@H](O)C(C)(C)[C@@H]5CC[C@]43C)[C@@H]2C1`, the IC50 in the test with A549, with MCF7, with Bel-7402, with K562 and with L02 was over 200 µM each time.
For the compound `CC1(C)[C@@H](O)CC[C@]2(C)[C@H]3C(=O)C=C4[C@@H]5C[C@@](C)(C(=O)OCCCCCCCCn6cc(F)c(=O)n(CCCCCCCCOC(=O)[C@@]7(C)CC[C@]8(C)CC[C@]9(C)C(=CC(=O)[C@@H]%10[C@@]%11(C)CC[C@H](O)C(C)(C)[C@@H]%11CC[C@]%109C)[C@@H]8C7)c6=O)CC[C@]5(C)CC[C@@]4(C)[C@]3(C)CC[C@@H]12`, the IC50 with A549, in the test with MCF7, with Bel-7402, with K562 and in the test on L02 was over 200 µM each time.
For `C[C@H]1[C@H](C)CC[C@]2(C(=O)OCCCCCCn3cc(F)c(=O)[nH]c3=O)CC[C@]3(C)C(=CC[C@@H]4[C@@]5(C)CC[C@H](O)C(C)(C)[C@@H]5CC[C@]43C)[C@H]12`, the IC50 in the test on A549 was 17.4 µM; in the test with MCF7, 18.9 µM; in the test with Bel-7402 it was 32.5 µM; in the test with K562, 14.9 µM; in the test on L02 it was 22.2 µM.
On to `CC1(C)CC[C@]2(C(=O)OCCCCCCCCn3cc(F)c(=O)[nH]c3=O)CC[C@]3(C)C(=CC[C@@H]4[C@@]5(C)CC[C@H](O)C(C)(C)[C@@H]5CC[C@]43C)[C@@H]2C1`, for which the IC50 with A549 is 50.5 µM; in the test on MCF7, 53.6 µM; with Bel-7402, 43.8 µM; in the test with K562, 23 µM; in the test on L02, over 200 µM; with A549/TR, 43.1 µM. Besides, the IC50 in the test with NCI/ADR-RES is 166 µM; in the test with Bel7402/5-FU, 31.4 µM; in the test with K562/Adr it was over 200 µM.
For the compound `CC1(C)[C@@H](O)CC[C@]2(C)[C@H]3C(=O)C=C4[C@@H]5C[C@@](C)(C(=O)OCCCCCCn6cc(F)c(=O)n(CCCCCCOC(=O)[C@@]7(C)CC[C@]8(C)CC[C@]9(C)C(=CC(=O)[C@@H]%10[C@@]%11(C)CC[C@H](O)C(C)(C)[C@@H]%11CC[C@]%109C)[C@@H]8C7)c6=O)CC[C@]5(C)CC[C@@]4(C)[C@]3(C)CC[C@@H]12`, the IC50 in the test on A549, in the test on MCF7, with Bel-7402, in the test on K562 and in the test on L02 was over 200 µM throughout.

In general, IC50 refers to the concentration needed to halve the response being measured.
